Legend:
[1] = tested on: Symbiodinium microadriacticum; details: 3 mg/ml G418; cited from earlier work
Navicula saprophila = details: artificial seawater medium, 100 ug/ml G418; cited from earlier work
Amphidinium sp. = details: 3 mg/ml G418; cited from earlier work
Chlorella ellipsoidea = details: 30 ug/mL G418; cited from earlier work
Cyclotella cryptica = details: 50% artificial seawater medium, 100 ug/ml G418; cited from earlier work
Prototheca moriformis = test: Growth in thiamine-free medium (thiamine auxotrophy complementation); assay type: cell-based; details: 2 μM precursor
Method: Thiamine prototrophy in Prototheca moriformis cells was examined using expression of exogenous THIC genes. […] To dissect the lesion responsible for thiamine auxotrophy at the biochemical level, the growth of Prototheca moriformis cells under five different regimes were examined:(1) in the presence of 2 μM thiamine hydrochloride; (2) without thiamine; (3) without thiamine, but with 2 μM hydroxyethyl thiazole (THZ); […] To observe the thiamine auxotrophy of wildtype Prototheca moriformis cells, it was necessary to first deplete cells of internal thiamine reserves. To test growth in medium without thiamine, cells were first grown to stationary phase in medium containing 2 μM thiamine and then the cells were diluted to an optical density at 750 nm (OD750) of approximately 0.05 in medium without thiamine. The diluted cells were then grown once more to stationary phase in medium without thiamine (about 2-3 days). These thiamine-depleted cells were used to inoculate cultures for growth studies in medium without thiamine Wildtype cells were grown in medium with glucose as the carbon source (with or without thiamine) and positive clones with the native transit peptide Coccomyxa C-169 THIC construct were grown in medium with sucrose as the sole carbon source. […]

Dunaliella salina = details: 60 mg/L chloramphenicol; cited from earlier work
Haematococcus pluvialis = details: 5 μM norflurazon; cited from earlier work
Gonium pectorale = details: 0.06 ug/ml paromomycin; cited from earlier work
Volvox carteri = details: 1.5 ug/ml zeocin; cited from earlier work
[2] = tested on: Phaeodactylum tricornutum; details: 50 ug/ml zeocin; cited from earlier work
[3] = tested on: Nannochloropsis sp. W2J3B; details: 2 ug/ml zeocin; cited from earlier work
Cylindrotheca fusiformis = details: 1 mg/ml zeocin; cited from earlier work
Chaetoceros sp. = details: 500 ug/ml nourseothricin; cited from earlier work
Thalassiosira pseudonana = details: 10 ug/ml nourseothricin; cited from earlier work
[4] = tested on: Closterium peracerosum-strigosum-littorale complex; details: 3 ug/ml phleomycin; cited from earlier work
Dunaliella tertiolecta = details: 1 mg/L phleomycin; cited from earlier work
[5] = tested on: Prototheca moriformis (UTEX 1435); test: Steady state thioesterase mRNA level by real-time RT-PCR (promoter testing, normalized to cd189); details: low nitrogen medium
[6] = tested on: Prototheca moriformis (UTEX 1435); test: cDNA abundance by real-time RT-PCR under nitrogen depletion; assay type: cell-based; details: after 24 hours of culture in low nitrogen medium
Method: A cDNA library was generated from Prototheca moriformis (UTEX 1435) using standard techniques. The Prototheca moriformis cells were grown for 48 hours under nitrogen replete conditions. […] After about 24 hours in culture, the nitrogen supply in the media was completely depleted. The collected samples were immediately frozen using dry ice and isopropanol. Total RNA was subsequently isolated from the frozen cell pellet samples and a portion from each sample was held in reserve for RT-PCR studies. The rest of the total RNA harvested from the samples was subjected to polyA selection. Equimolar amounts of polyA selected RNA from each condition was then pooled and used to generate a cDNA library in vector pcDNA 3.0 (Invitrogen). Roughly 1200 clones were randomly picked from the resulting pooled cDNA library and subjected to sequencing on both strands. Approximately 68 different cDNAs were selected from among these 1200 sequences and used to design cDNA-specific primers for use in real-time RT-PCR studies. RNA isolated from the cell pellet samples that were held in reserve was used as substrate in the real time RT-PCR studies using the cDNA-specific primer sets generated above. This reserved RNA was converted into cDNA and used as substrate for RT-PCR for each of the 68 gene specific primer sets. […] As discussed in the specification, nitrogen depletion/limitation is a known inducer of lipogenesis in oleaginous microorganisms. Fold increase refers to the fold increase in cDNA abundance after 24 hours of culture in low nitrogen medium.

In the case of `CN[C@@H]1[C@@H](O)[C@@H](O[C@@H]2[C@@H](O)[C@H](O[C@H]3O[C@H]([C@@H](C)O)[C@@H](O)[C@H](O)[C@H]3N)[C@@H](N)C[C@H]2N)OC[C@]1(C)O` [G418], the “propagation of untransformed cells in medium comprising the agent” value (“propagation of untransformed cells” below) [1] is given as “unable to be propagated”, the “propagation of untransformed cells” value (Navicula saprophila) is given as “unable to propagate” and the “propagation of untransformed cells” value (Amphidinium sp.) is given as “unable to be propagated”. The “propagation of untransformed cells” value (Chlorella ellipsoidea) was “unable to be propagated” and the “propagation of untransformed cells” value (Cyclotella cryptica) was “unable to propagate”.

For `Cc1ncc(CN)c(N)n1` [PYR, 2-methyl-4-amino-5-(aminomethyl)pyrimidine], the “thiamine pyrophosphate production / growth without thiamine with precursor” value (Prototheca moriformis) was “can only produce thiamine pyrophosphate (TPP) if the PYR precursor is provided”.

For `O=C(N[C@H](CO)[C@H](O)c1ccc([N+](=O)[O-])cc1)C(Cl)Cl` [chloramphenicol], the “propagation of untransformed cells” value (Dunaliella salina) is listed as “unable to propagate”.

In the case of `CNc1cnn(-c2cccc(C(F)(F)F)c2)c(=O)c1Cl` [norflurazon], the “propagation of untransformed cells” value (Haematococcus pluvialis) is listed as “unable to propagate”.

In the case of `NC[C@@H]1O[C@H](O[C@H]2[C@@H](O)[C@H](O[C@@H]3[C@@H](O)[C@H](N)C[C@H](N)[C@H]3O[C@H]3O[C@H](CO)[C@@H](O)[C@H](O)[C@H]3N)O[C@@H]2CO)[C@H](N)[C@@H](O)[C@@H]1O` [paromomycin], the “propagation of untransformed cells” value (Gonium pectorale) is listed as “unable to propagate”.

For `Cc1c(N)nc([C@H](CC(N)=O)NC[C@H](N)C(N)=O)nc1C(=O)N[C@H](C(=O)N[C@H](C)[C@@H](O)[C@H](C)C(=O)N[C@H](C(=O)NCCC1=N[C@@H](c2nc(C(=O)NCCCCN=C(N)N)cs2)CS1)[C@@H](C)O)[C@@H](O[C@@H]1O[C@@H](CO)[C@@H](O)[C@H](O)[C@@H]1O[C@H]1O[C@H](CO)[C@@H](O)[C@H](OC(N)=O)[C@@H]1O)c1cnc[nH]1` [zeocin], the “propagation of untransformed cells” value (Volvox carteri) is listed as “unable to be propagated”, the “propagation of untransformed cells” value [2] is listed as “unable to propagate” and the “propagation of untransformed cells” value [3] is listed as “unable to propagate”. For the same molecule, the “propagation of untransformed cells” value (Cylindrotheca fusiformis) was “unable to propagate”.

In the case of nourseothricin, the “propagation of untransformed cells” value (Chaetoceros sp.) is given as “unable to propagate” and the “propagation of untransformed cells” value (Thalassiosira pseudonana) is given as “unable to propagate”.

For phleomycin, the “propagation of untransformed cells” value [4] is listed as “unable to propagate” and the “propagation of untransformed cells” value (Dunaliella tertiolecta) is listed as “unable to be propagated”.

B1: Aat04-Amino acid transporter 04 promoter/5′UTR: putative nitrogen-regulated promoter/5′UTR, SEQ ID NO: 65 (nucleic acid, listed as Prototheca moriformis)
DNA: CGCGTGGAGCGGTGCGTGCGGATGCCGCGCGCCTGCCAAGGCCTTTTGTATGCCTGGCCTGGGAAGTTTCCTGACTGAAGCATCTTCAAGATGCTCTCTCACGACCAGCGACACCAACACCGTCACTTTTTGCCCCTCCTGCCGCAGGTGCCACTTTCTACTTTGACGTCTTCTCCAGGCGGTACATTGCGGGACTGAGCGCCAATTCGGCCAAGAACAGCGCTGTCGACTTGAGGAGGCAGGGGTCCGTCGACTCTGCCGAGTGACACGCCTTCGACCCGACTGTACTACGGCCTGCTGAAGAGTGGGTCTCGCCGGCCGGCGTGACCGGCCCTGTGCCCACAATCGACCATCTATTCGCTCCTTGTCATCTGGCGCCGTCAATTGCCCGCGACTTGACGGCAACTGGCTCGATCGAGTCGTATTGAAAAAGCACGTTTTGTCCTACAGGGCCGCGGTCCGTTACCAACGTGGTTCTCGTTAGGTTTTCGTCGGGCGGTGGTGCGCGAACTGTCCGATGCCATCCCGGCAAACCCCAGCAAGGTCGCCAGTCTGGTTCTGACGCAATAGAGTGCGTTTTGGGCCAGTCTAAAAATTCGTCTGGCATGACGTGGCTCCACATCGTACCCGGAGCCTGCCTTGGTAATGTGAGGCACCGGTGCCAACTCCATTATGGCAGGCATCGAGCGCGCAGGTGAGTACATGACCTTCCGTGAATTGGGAAGGCGAGCTTGTGTAACGCCTGCGATCGTGCCAGTGAGGCATCGTAAACTCAAAATATTTTGTAGAAAGTGTCTGATGCCTGGTGAGGCTGCGTAGGGCAAGGGCAAGCCCTTGGCAGATGGGTAATGGGTCCGGACCTCACAACAGCAACCCCGCGTCCCCCTTAGGGCCCCTGAGGCTCGATGGCAGGGCCAGCGAGCCCGCGGCCAAAGGGCGCCATCCCACGGTCGCCCAACGACTCCACGGGTCCTATACCTCATCTTGAATGGCACTAAAAACTATAGAATATCGGGCACTGGTGGGCGTCTGGGGTACAGCTGGCCGAGCGCAGTGGCAAACCCTAGGTCCCGCCTCAAGGGCGATTCCCGGGTCAATGACACGCAAGCAAGATCACATGGCGCGGTCCGCCTCGCGGCTCCACACCCAGGCCCTAGTTTCGCAACCCATAAATATCGCCCCGATACCATCATAAGCCAGCAAATAATTTTTTATCAGAGTTCCAAACCTCCTCAGCTGTGGGAAACCAGCCCACTCTGAACG
For B1, the “steady state C. camphora thioesterase mRNA level relative to control (C. reinhardtii beta tubulin promoter)” value [5] was “up to five” and the “Fold increased (cDNA abundance)” value [6] was 10.95.

B2: Amt02-Ammonium transporter 02 promoter/5′UTR: putative nitrogen-regulated promoter/5′UTR, SEQ ID NO: 61 (nucleic acid, listed as Prototheca moriformis)
DNA: TCACCAGCGGACAAAGCACCGGTGTATCAGGTCCGTGTCATCCACTCTAAAGAGCTCGACTACGACCTACTGATGGCCCTAGATTCTTCATCAAAAACGCCTGAGACACTTGCCCAGGATTGAAACTCCCTGAAGGGACCACCAGGGGCCCTGAGTTGTTCCTTCCCCCCGTGGCGAGCTGCCAGCCAGGCTGTACCTGTGATCGGGGCTGGCGGGAAAACAGGCTTCGTGTGCTCAGGTTATGGGAGGTGCAGGACAGCTCATTAAACGCCAACAATCGCACAATTCATGGCAAGCTAATCAGTTATTTCCCATTAACGAGCTATAATTGTCCCAAAATTCTGGTCTACCGGGGGTGATCCTTCGTGTACGGGCCCTTCCCTCAACCCTAGGTATGCGCACATGCGGTCGCCGCGCAACGCGCGCGAGGGCCGAGGGTTTGGGACGGGCCGTCCCGAAATGCAGTTGCACCCGGATGCGTGGCACCTTTTTTGCGATAATTTATGCAATGGACTGCTCTGCAAAATTCTGGCTCTGTCGCCAACCCTAGGATCAGCGGTGTAGGATTTCGTAATCATTCGTCCTGATGGGGAGCTACCGACTGCCCTAGTATCAGCCCGACTGCCTGACGCCAGCGTCCACTTTTGTGCACACATTCCATTCGTGCCCAAGACATTTCATTGTGGTGCGAAGCGTCCCCAGTTACGCTCACCTGATCCCCAACCTCCTTATTGTTCTGTCGACAGAGTGGGCCCAGAGGCCGGTCGCAGCC
In the case of B2, the “steady state C. camphora thioesterase mRNA level relative to control (C. reinhardtii beta tubulin promoter)” value [5] is reported as “up to three” and the “Fold increased (cDNA abundance)” value [6] is reported as 10.76.

Source: patent US10100341B2, “Tailored oils produced from recombinant oleaginous microorganisms” (Corbion Biotech, Inc., priority 2011, dated 2018)
